The supplement of paper PMC8960247
± gives the standard error.

What was measured:
621-102 (TSC2-deficient) [1] = experiment: relative viability vs DMSO (fraction); higher = less cytotoxic; conditions: serum: 0.1% FBS, 72 h
UMB1949 (TSC2-deficient) = experiment: as above; conditions: serum: 0.1% FBS, 72 h;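 note: renal angiomyolipoma cell lines screened in 384-well plates, viability normalized per plate to DMSO-treated cells, each plate carrying 50 nM rapamycin and 1 µM staurosporine controls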
621-102 (TSC2-deficient) [2] = experiment: relative viability vs DMSO; higher = less cytotoxic; conditions: serum: 10% FBS, 72 h
621-103 (TSC2-rescued) = experiment: as above; conditions: serum: 10% FBS, 72 h

| Compound | relative viability (621-102 (TSC2-deficient) [1]; 0.0128 nM) | relative viability (621-102 (TSC2-deficient) [1]; 0.064 nM) | relative viability (621-102 (TSC2-deficient) [1]; 0.32 nM) | relative viability (621-102 (TSC2-deficient) [1]; 1.6 nM) | relative viability (621-102 (TSC2-deficient) [1]; 8 nM) | relative viability (621-102 (TSC2-deficient) [1]; 40 nM) | relative viability (621-102 (TSC2-deficient) [1]; 200 nM) | relative viability (621-102 (TSC2-deficient) [1]; 1000 nM) | relative viability (621-102 (TSC2-deficient) [1]; 5000 nM) | relative viability (UMB1949 (TSC2-deficient); 0.0128 nM) | relative viability (UMB1949 (TSC2-deficient); 0.064 nM) | relative viability (UMB1949 (TSC2-deficient); 0.32 nM) | relative viability (UMB1949 (TSC2-deficient); 1.6 nM) | relative viability (UMB1949 (TSC2-deficient); 8 nM) | relative viability (UMB1949 (TSC2-deficient); 40 nM) | relative viability (UMB1949 (TSC2-deficient); 200 nM) | relative viability (UMB1949 (TSC2-deficient); 1000 nM) | relative viability (UMB1949 (TSC2-deficient); 5000 nM) | relative viability (621-102 (TSC2-deficient) [2]; 0.0001 µM) | relative viability (621-102 (TSC2-deficient) [2]; 0.001 µM) | relative viability (621-102 (TSC2-deficient) [2]; 0.01 µM) | relative viability (621-102 (TSC2-deficient) [2]; 0.1 µM) | relative viability (621-102 (TSC2-deficient) [2]; 1 µM) | relative viability (621-102 (TSC2-deficient) [2]; 10 µM) | relative viability (621-103 (TSC2-rescued); 0.0001 µM) | relative viability (621-103 (TSC2-rescued); 0.001 µM) | relative viability (621-103 (TSC2-rescued); 0.01 µM) | relative viability (621-103 (TSC2-rescued); 0.1 µM) | relative viability (621-103 (TSC2-rescued); 1 µM) | relative viability (621-103 (TSC2-rescued); 10 µM) |
| --- | --- | --- | --- | --- | --- | --- | --- | --- | --- | --- | --- | --- | --- | --- | --- | --- | --- | --- | --- | --- | --- | --- | --- | --- | --- | --- | --- | --- | --- | --- |
| CC(C)[C@H](C(=O)Nc1ccc(C(=O)NO)cc1)c1ccccc1 [AR-42] | 0.993 | 1.12 | 1.01 | 1.02 | 0.76 | 0.563 | 0.416 | 0.389 | 0.0646 | 1.03 | 1.11 | 1.12 | 1.07 | 0.89 | 0.548 | 0.0124 | 0.00772 | 0.00643 |  |  |  |  |  |  |  |  |  |  |  |  |
| CC(C)c1cc(C(C)C)c(CC(=O)NS(=O)(=O)Oc2c(C(C)C)cccc2C(C)C)c(C(C)C)c1 [Avasimibe] | 1.07 | 0.675 | 1.2 | 1.1 | 1.08 | 1.53 | 1.4 | 0.32 | 0.0125 | 1.13 | 1.12 | 1.19 | 1.06 | 1.08 | 1.1 | 1.02 | 0.00835 | 0.00834 |  |  |  |  |  |  |  |  |  |  |  |  |
| C#Cc1cccc(Nc2ncnc3cc(OC)c(OCCCCCCC(=O)NO)cc23)c1 [CUDC-101] | 0.714 | 0.529 | 0.505 | 0.386 | 0.343 | 0.123 | 0.127 | 0.005 | 0.0015 |  |  |  |  |  |  |  |  |  | 110.7 ± 0.61% | 108 ± 6.5% | 104 ± 1.9% | 95.14 ± 0.26% | 85.2 ± 2% | 30.6 ± 1.5% | 94.9 ± 1.2% | 99.73 ± 0.74% | 97.8 ± 1.4% | 93.79 ± 0.69% | 83.8 ± 2.3% | 2.28 ± 0.2% |
| CCC[C@H](Nc1nc(-c2ccc(NC(=O)NCC)c(OC)c2)ncc1C)c1cccnc1 [CYT997] |  |  |  |  |  |  |  |  |  | 0.622 | 0.0694 | 0.00719 | 0.0079 | 0.00595 | 0.00742 | 0.00575 | 0.00558 | 0.00511 | 87.8 ± 1.3% | 95.67 ± 0.75% | 48.6 ± 1.6% | 39.1 ± 0.56% | 36.2 ± 0.95% | 41 ± 1.1% | 82.2 ± 1.5% | 78.28 ± 0.4% | 40.2 ± 0.82% | 26.3 ± 2.2% | 24.3 ± 0.3% | 25.4 ± 2% |
| CC[C@@]1(O)C(=O)OCc2c1cc1n(c2=O)Cc2cc3ccccc3nc2-1 [Camptothecin] | 0.843 | 0.818 | 0.747 | 0.485 | 0.166 | 0.178 | 0.00844 | 0.00416 | 0.00456 | 0.995 | 0.913 | 0.83 | 0.129 | 0.0117 | 0.00478 | 0.00188 | 0.00182 | 0.00462 |  |  |  |  |  |  |  |  |  |  |  |  |
| Nc1ccn([C@@H]2O[C@H](CO)[C@@H](O)[C@@H]2O)c(=O)n1 [Cytarabine] | 1.24 | 1.08 | 1.14 | 0.885 | 1.01 | 0.505 | 0.244 | 0.096 | 0.0178 | 0.98 | 0.941 | 0.967 | 0.962 | 0.974 | 0.929 | 0.176 | 0.00531 | 0.0022 |  |  |  |  |  |  |  |  |  |  |  |  |
| CC1=NN(c2ccc(C)c(C)c2)C(=O)/C1=N\Nc1cccc(-c2cccc(C(=O)O)c2)c1O [Eltrombopag] | 1.19 | 0.961 | 0.994 | 0.991 | 0.875 | 0.926 | 1.43 | 0.074 | 0.0453 | 1.08 | 0.963 | 1 | 1.05 | 1.09 | 1.03 | 0.473 | 0.00551 | 0.00668 |  |  |  |  |  |  |  |  |  |  |  |  |
| CO[C@H]1C[C@@H]2CC[C@@H](C)[C@@](O)(O2)C(=O)C(=O)N2CCCC[C@H]2C(=O)O[C@H]([C@H](C)C[C@@H]2CC[C@@H](OCCO)[C@H](OC)C2)CC(=O)[C@H](C)/C=C(\C)[C@@H](O)[C@@H](OC)C(=O)[C@H](C)C[C@H](C)/C=C/C=C/C=C/1C [Everolimus(RAD001)] | 0.753 | 0.734 | 0.706 | 0.696 | 0.681 | 0.543 | 0.391 | 0.325 | 0.276 | 1 | 0.899 | 0.985 | 0.9 | 0.936 | 0.847 | 0.781 | 0.401 | 0.461 |  |  |  |  |  |  |  |  |  |  |  |  |
| COC(=O)Nc1nc2cc(Sc3ccccc3)ccc2[nH]1 [Fenbendazole] | 1.37 | 1.35 | 1.68 | 1.39 | 0.898 | 0.314 | 0.0634 | 0.0446 | 0.0203 | 1.05 | 0.807 | 1.02 | 0.969 | 0.983 | 0.605 | 0.00543 | 0.00256 | 0.00375 |  |  |  |  |  |  |  |  |  |  |  |  |
